Where two headings read alike, the source gives them in different places.
Columns and labels:
[1] = test system: FIXgla-PC carboxylation in HEK 293 cells; assay type: cell-based, human; settings: for inhibition of FIXgla-PC carboxylation by 2 μM warfarin: 5 μM KO as substrate
[2] = test system: FIXgla-PC carboxylation in AV12 cells
[3] = test system: carboxylation of FIXgla-PC reporter protein in HEK293 cells (reduction of KO to vitamin K); assay: Cell-based VKOR activity assay: recombinant VKOR/VKORH expressed in FIXgla-PC/HEK293 cells with KO and warfarin, carboxylated reporter by ELISA; design: species or system human; settings: for carboxylation of reporter protein by human VKOR cysteine mutants: Y139F background, 4 μM warfarin, HEK293 (FIG. 13); for activity in the in vivo assay: cysteine mutants of VKOR-Y139F
[4] = test system: carboxylation of FIXgla-PC reporter protein in AV12 cells (reduction of vitamin K to KH2); assay: Cell-based VKOR activity assay in FIXgla-PC/AV12 or FIXgla-PC/VKOR-Y139F/AV12 cells, carboxylated reporter by ELISA; design: species or system Syrian golden hamster
[5] = Activity of warfarin-resistant Y139F human VKOR relative to wild-type human VKOR
[6] = literature refs 18, 25; cited from earlier work
[7] = previous in vitro results; cited from earlier work

Molecule: CC(=O)CC(c1ccccc1)c1c(O)c2ccccc2oc1=O (stereo not shown) [warfarin]
- carboxylated reporter protein detected in the medium in the presence of warfarin ([1]; 1 μM vitamin K, 2 μM warfarin, HEK293): less than 20%
- carboxylation of reporter protein by endogenous VKOR at 4 μM warfarin ([1]; 4 μM warfarin, HEK293): completely abolished
- inhibition of FIXgla-PC carboxylation by 2 μM warfarin ([1]; 2 μM warfarin, HEK293): completely inhibited
- inhibition of FIXgla-PC carboxylation by 2 μM warfarin ([1]; 2 μM warfarin, HEK293, listed as Warfarin): eliminated KO-supported carboxylation
- levels of carboxylated protein in the presence of warfarin, cells fed vitamin K ([1]; 11 μM vitamin K as substrate, HEK293): unaffected
- IC50 ([1]; Homo sapiens, KO (5 μM) as substrate, 48 h, HEK293, read-out: warfarin concentration giving 50% inhibition of FIXgla-PC carboxylation): 100 nM
- effect of warfarin on reporter protein carboxylation ([2]; AV12 stably over expressing VKOR-Y139F, 5 μM KO, 2 μM warfarin): abolished reporter protein carboxylation
- inhibition of production of carboxylated reporter protein by warfarin ([2]; vitamin K as substrate, AV12): significantly inhibited
- residual activity ([2]; vitamin K as substrate, warfarin, AV12 (FIG. 4A)): ~20%

Molecule: CC1=C(C/C=C(\C)CCC[C@H](C)CCC[C@H](C)CCCC(C)C)C(=O)c2ccccc2C1=O [vitamin K, Vitamin K1]
- increase in secretion of carboxylated reporter protein compared to no additions ([1]; 11 μM vitamin K or 5 μM KO, HEK293): approximately 25 fold
- vitamin K concentration at which carboxylation occurred maximally ([1]; absence of warfarin, HEK293, 48 h): 1 µM
- vitamin K concentration at which maximal carboxylation was detected ([1]; presence of 2 μM warfarin, HEK293, 48 h): 22 µM
- vitamin K concentration at which maximum carboxylation of FIXgla-PC occurs ([2]; AV12 cells): 2.5 µM

Molecule: O=c1oc2ccccc2c(O)c1Cc1c(O)c2ccccc2oc1=O [dicoumarol]
- reporter protein carboxylated ([1]; 20 μM dicoumarol, HEK293, vitamin K): 60%
- inhibition of reporter protein carboxylation by dicoumarol ([1]; KO as vitamin K source, HEK293): significantly inhibited
- inhibition of reporter protein carboxylation by dicoumarol ([1]; cells fed vitamin K, HEK293): only minimal inhibition
- decrease of carboxylation of the reporter protein ([1]; vitamin K as substrate, dicoumarol): ~20%
- inhibition of reporter protein carboxylation by dicoumarol ([2]; vitamin K present, AV12): completely inhibited

B1: VKOR-Y139F: human VKOR rendered warfarin resistant by Y139F mutation; control (protein, UniProt Q9BQB6 1-163, looked up, variant Y139F)
Vitamin K epoxide reductase …: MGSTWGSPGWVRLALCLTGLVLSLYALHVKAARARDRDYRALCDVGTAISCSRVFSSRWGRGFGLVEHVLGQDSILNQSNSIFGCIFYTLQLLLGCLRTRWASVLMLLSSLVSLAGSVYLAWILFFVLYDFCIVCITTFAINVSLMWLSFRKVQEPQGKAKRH
- carboxylation of reporter protein by human VKOR cysteine mutants [3]: restored
- increase of carboxylated reporter protein compared to the control ([3]; transient expression, 5 μM KO, 2 μM warfarin, HEK293, control empty vector): ~20 fold
- increase of reporter protein carboxylation by over-expression ([4]; stable expression in AV12, 5 μM KO, no warfarin (FIG. 7B)): approximately two-fold
- carboxylated reporter protein secreted ([4]; transient expression in FIXgla-PC/AV12, 5 μM KO, 2 μM warfarin (FIG. 7A)): no carboxylated reporter protein was secreted
- support of reporter protein carboxylation ([4]; transient expression in FIXgla-PC/AV12 not stably expressing VKOR-Y139F, KO and warfarin (FIG. 19B)): did not support carboxylation of the reporter protein
- reduction in the activity of human VKOR caused by the Y139F mutation [5]: approximately 50%
- fraction of wild-type VKOR activity observed ([5]; Y139F human VKOR): About 50%
- fraction of wild-type activity [6]: ~40%

B2: C16A: warfarin resistant human VKOR (Y139F) with C16 mutated to alanine (protein, UniProt Q9BQB6 1-163, looked up, variant C16A)
Vitamin K epoxide reductase …: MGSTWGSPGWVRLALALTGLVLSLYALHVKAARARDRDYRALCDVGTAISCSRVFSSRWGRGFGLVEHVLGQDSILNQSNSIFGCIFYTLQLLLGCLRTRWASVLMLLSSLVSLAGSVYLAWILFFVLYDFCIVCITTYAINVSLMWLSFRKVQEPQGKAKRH
- activity in the in vivo assay ([3]; 5 μM KO, 4 μM warfarin (FIG. 17A)): no effect on activity
- activity in the in vitro assay [7]: ~40%

B3: C43A: warfarin resistant human VKOR (Y139F) with C43 mutated to alanine (protein, UniProt Q9BQB6 1-163, looked up, variant C43A)
Vitamin K epoxide reductase …: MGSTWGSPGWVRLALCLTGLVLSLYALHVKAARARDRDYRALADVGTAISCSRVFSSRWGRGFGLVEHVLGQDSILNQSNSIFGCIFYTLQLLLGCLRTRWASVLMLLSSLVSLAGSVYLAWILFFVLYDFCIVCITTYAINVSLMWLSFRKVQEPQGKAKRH
- carboxylation of reporter protein by human VKOR cysteine mutants [3]: dramatically decreased activity
- activity in the in vivo assay ([3]; 5 μM KO, 4 μM warfarin (FIGS. 17A-B)): ~5%
- activity in the in vitro assay [7]: ~30%
